The term IC50 denotes the concentration needed to halve the response being measured.

Entries after “also recorded” stand apart in the source; their conditions may differ. Like-named read-outs stand apart in the source and are kept apart here. Where only a bound is given, the exact number is not on record here.

The target of data set [1] is T1, PDEδ (Homo sapiens, UniProt O43924). The experiment in a line: In-cell covalent modification of PDEδ (immunoblot). The note with it: 2 h.
Data set [2] deals with mTORC1 substrate S6P in PA-TU-8902 cells. The note with it: 10 µM.
The nature of the next data set: Mouse plasma stability. The class given is in vitro ADME. To be noted: 50% mouse plasma in PBS, within an hour. The source says:
plotted as mean ± standard deviation, representative of 3 technical replicates ( N = 3). Unpaired, two-
Data were plotted as mean ± standard deviation, representative of 3 technical replicates in the presence

The test system of the next data set is DNA in Jurkat cells. The experiment in a line: Comet assay (DNA alkylation). To be noted: 10 µM.
Data set [3] relates to panel of human cell lines. The experiment in a line: Cytotoxicity screening in a panel of human cell lines. The data set is classed as cell-based. To be noted: concentrations up to 25 µM. The procedure: (§1) Real-time cell analysis (RTCA) was conducted using an Incucyte S3 live-cell analysis system (Sartorius AG, Germany). Adherent cell lines were seeded at 5 × 10³ cells per well in 96-well plates containing 100 µl of culture medium and incubated overnight at 37 °C with 5% CO₂. Following attachment overnight, the medium was replaced with fresh medium containing test compounds, with all conditions adjusted to contain 0.5% DMSO. […] Phase-contrast images (2 images per well) were automatically captured at 2-h intervals until control wells (DMSO-treated) reached full confluency. Cell growth was quantified using the instrument’s integrated Basic Analyser module by applying a confluence mask to calculate the percentage of phase area confluence. For dose-response assessment, confluence values at 72 h post-treatment were normalised to the DMSO control and analysed using GraphPad Prism 9.5.1 (GraphPad Software, USA). Dose-response curves were generated and fitted via four-parameter variable slope nonlinear regression to determine cellular IC₅₀ values.
representative of biological replicates n = 3.
comet images for each condition were shown.
time live-cell imaging by Incucyte.
Source data are provided as […]

The subject of another data set is HAP1 PDEδ knockout cells. In words: Relative growth after 72 h. The class given is cell-based. To be noted: 0 - 50 µM. The procedure: as §1, with “Adherent cell lines were seeded at 5 × 10³ cells per well in 96-well plates containing 100 µl of culture medium and incubated overnight at 37 °C with 5% CO₂.” left out, “For dose-response assessment, confluence values at 72 h post-treatment were normalised to the DMSO control and analysed using GraphPad Prism 9.5.1 (GraphPad Software, USA).” left out

Data set [4] deals with T2, PDEδ in the presence of Arl2•GppNHp (Homo sapiens, UniProt O43924).
T2 construct: His tag; made in house; host or cells: Escherichia coli Rosetta (BL21DE3), pET plasmids
The experiment in a line: Competitive fluorescence polarisation assay in the presence of Arl2•GppNHp. The data set is classed as binding. The source says:
Data are presented as mean ± s.e.m.

Data set [5] has as its target PDEδ in Jurkat cell lysates (Homo sapiens, UniProt O43924). The experiment in a line: In-lysate covalent modification of PDEδ (anti-PDEδ immunoblot band shift). For orientation: In western blotting, separated proteins are transferred to a membrane and probed.
Data set [6] has as its target T1, PDEδ. The experiment in a line: Differential scanning fluorimetry (NanoDSF). Set-up: His tag; made in house; host or cells: Escherichia coli Rosetta (BL21DE3), pET plasmids. The data set is classed as binding. The procedure:
Afterwards, a sample of the solution was cooled down to room temperature and was loaded onto a capillary, followed by the measurement of fluorescence intensities at 350 nm and 330 nm from 20 °C up to 90 °C (with a rate of increment of 1 °C/min) using the Prometheus Panta device (NanoTemper® Technologies, DE).

A short description of data set [7]: Compound stability in aqueous buffers. The class given is physicochemical. Here is the method:
Compound (1 mM) was incubated with the respective buffers (HEPES 20 mM, 150 mM NaCl, pH = 7.5; 0.2 M sodium acetate buffer, pH = 5.6; 0.2 M sodium citrate buffer, pH = 6.2; 0.2 M potassium phosphate buffer, pH = 7.4, 1 mM EDTA, with or without 10 mM GSH), with 1% DMSO adjusted for all conditions. […] Per cent (%) compound remaining in the solution was estimated by the ratio of areas under the curve, and data plotted were fitted to pseudo-1st kinetics in the calculation of rate constants (k) and half-lives (t1/2), where k is the negative slope of a linear regression of In (% compound remaining) over time. Half-lives (t1/2) in respective buffers and half-lives for GSH adduct formation (t1/2 GSH) were calculated with the following equations:1 t1/2=In2/k 2 kGSH=ktotalconsumptioninphosphatebufferinpresenceofGSH−k(phosphatebufferinabsenceofGSH) 3 t1/2GSH=In2/k(GSH) […]
a, Percentage (%) of compound remaining was monitored by HPLC-MS and data was fitted to pseudo-first kinetics in calculation of rate constants (k) and half-lives (t1/2) in respective buffers, where k is the negative slope of a linear regression of In (% compound remaining) over time and t 1/2 = In2/k. Initial […]
Initial GSH concentration =

As to `Cc1ccc(-n2nc3c(=O)n(CCCCS(=O)(=O)N(CCc4cccc(CCBr)c4)CC4CCNCC4)nc(C)c3c2C)cc1` [6a], at PDEδ [1], the “in-cell covalent modification of PDEδ” value is “covalent binding of DeltaTag (6a) to PDEδ within 2 h”. Besides, the S6P phosphorylation entry in data set [2] was “reduced S6P phosphorylation in a time-dependent manner”. For the same compound, in the data set “Mouse plasma stability”, the “stability in mouse plasma” value is on record as “stable in mouse plasma”. Besides, in the data set on DNA in Jurkat cells, the “off-target effects such as DNA alkylation (Comet assay)” value is “not observed”. Besides, in data set [3], the general cytotoxicity result was “no general toxicity; also recorded: not observed”. Further, the “growth impairment of HAP1 PDEδ knockout cells compared to HAP1 wild type cells” value in the data set with HAP1 PDEδ knockout cells is recorded as “less pronounced”. The IC50 in data set [4] (37 °C, PDEδ 40 nM, Arl2•GppNHp 40 nM, FA probe 24 nM) came to 10.1 ± 2.6 nM; in [4] (pre-incubated with PDEδ at 37 °C overnight before addition of Arl2•GppNHp) it was 4.8 ± 1.5 nM. Besides, in [5] (10 µM for 2 h), the “in-lysate covalent modification of PDEδ on anti-PDEδ immunoblot” value is given as “upward shift of the band indicates covalent binding”. In addition, the “Estimated % PDEδ labelling” value in data set [5] (10 µM, 15 min) is given as 33%; in data set [5] (10 µM, 15 min, listed as DeltaTag), “approximately 33%”; in data set [5] (10 µM, 30 min), 55%; in [5] (10 µM, 60 min), 60%. Moreover, the “time to estimated full labelling of PDEδ” value in data set [5] (50 µg cell lysates, 10 µM) is listed as no more than 2 h. At PDEδ [6] (2 h incubation), the “ΔTm (NanoDSF)” value was 13.5 ± 0.2 °C. At PDEδ [6] (PDEδ 20 µM, compound 60 µM, mean ± s.d., Fig. 2e, read-out: melting temperature shift ΔTm (NanoDSF)), the ΔTm at 60 µM amounted to 15.5 ± 1 °C. For the same compound, the half-life at 1 mM was 20 days in data set [7] (HEPES buffer, pH 7.5, 37 °C, compound 1 mM, read-out: half-life t1/2 in HEPES buffer (converted)) and 6.04 days in [7] (acetate buffer, pH 5.6, 37 °C, read-out: half-life t1/2 in acetate buffer (converted)).

The record behind these values is paper PMC12864978, “Covalent modification of a glutamic acid inspired by HaloTag technology” (Nature Communications, 2026).
